Source: patent publication US12344597B2, “Alkoxy-substituted pyridinyl derivatives as LPA1 receptor antagonists and their use in the treatment of fibrosis” (IDORSIA PHARMACEUTICALS LTD, priority 2018, dated 2025)

The molecules below were run against human LPA1 receptor (Homo sapiens (Human), UniProt Q92633) (assay: Beta-arrestin recruitment assay to determine IC50 values for human LPAR1). Conditions: antagonist mode, Tango EDG2-bla U2OS cells, LPA 18:1 500 nM final.
Chain of human LPA1 receptor (Q92633 whole entry): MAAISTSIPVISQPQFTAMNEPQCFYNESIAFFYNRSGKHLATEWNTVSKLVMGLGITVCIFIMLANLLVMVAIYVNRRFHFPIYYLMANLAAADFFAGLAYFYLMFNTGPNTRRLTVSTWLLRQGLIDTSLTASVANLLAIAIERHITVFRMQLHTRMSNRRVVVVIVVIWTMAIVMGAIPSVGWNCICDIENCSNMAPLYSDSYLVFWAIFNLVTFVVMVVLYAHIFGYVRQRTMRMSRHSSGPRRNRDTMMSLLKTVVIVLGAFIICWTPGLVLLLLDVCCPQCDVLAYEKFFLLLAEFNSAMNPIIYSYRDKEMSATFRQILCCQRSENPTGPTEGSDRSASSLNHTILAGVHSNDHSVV
Type: cell-based
Summary of the method: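 Tango EDG2-bla U2OS cells: LPA-driven beta-arrestin/TEV protease recruitment releases Gal4-VP16, inducing beta-lactamase reporter read with live-cell substrate. Cells seeded 20 h at 37 °C beforehand. IC50 is antagonist concentration inhibiting 50% of maximal response.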
`Cc1ccc(C2(C(=O)Nc3ccc(C)nc3OC(F)F)CN(C(=O)CC(C)(C)C(=O)O)C2)c(C(C)C)c1` [Ex 39-3, 4-(3-((2-(difluoromethoxy)-6-methylpyridin-3-yl)carbamoyl)-3-(2-isopropyl-4-methylphenyl)azetidin-1-yl)-2,2-dimethyl-4-oxobutanoic acid] showed an IC50 of 0.04 µM.
With “N-(2-(difluoromethoxy)-6-methylpyridin-3-yl)-1-(3-(N-hydroxyacetamido)propanoyl)-3-(2-isopropylphenyl)azetidine-3-carboxamide [Ex 12-130]” the IC50 was 0.048 µM.
Molecule `Cc1ccc(NC(=O)C2(c3ccccc3C(C)C)CCN(C(=O)C[C@H](O)C(=O)O)CC2)c(OC(F)F)n1` [Ex 12-37, (S)-4-(4-((2-(difluoromethoxy)-6-methylpyridin-3-yl)carbamoyl)-4-(2-isopropylphenyl)piperidin-1-yl)-2-hydroxy-4-oxobutanoic acid] has an IC50 of 0.022 µM.
With “5-(3-((2-(difluoromethoxy)-6-methylpyridin-3-yl)carbamoyl)-3-(2-isopropylphenyl)azetidin-1-yl)-2-methylpentan-2-yl acetate [Ex 11-65]” the IC50 was 0.315 µM.
For `Cc1ccc(NC(=O)C2(c3ccccc3C(C)C)CN(c3ccncc3F)C2)c(OC(F)F)n1` [Ex 18-19, N-(2-(difluoromethoxy)-6-methylpyridin-3-yl)-1-(3-fluoropyridin-4-yl)-3-(2-isopropylphenyl)azetidine-3-carboxamide], the IC50 was 0.002 µM.
In the case of `Cc1ccc(NC(=O)C2(c3ccccc3C(C)C)CN(S(=O)(=O)c3[nH]ncc3C(=O)O)C2)c(OC(F)F)n1` [Ex 13-25, 5-((3-((2-(difluoromethoxy)-6-methylpyridin-3-yl)carbamoyl)-3-(2-isopropylphenyl)azetidin-1-yl)sulfonyl)-1H-pyrazole-4-carboxylic acid], the IC50 is reported as 0.4 µM.
`Cc1ccc(NC(=O)C2(c3c(F)cccc3C(C)C)CNC2)c(OC(F)F)n1` [Ex 36, N-(2-(difluoromethoxy)-6-methylpyridin-3-yl)-3-(2-fluoro-6-isopropylphenyl)azetidine-3-carboxamide] was tested, and the IC50 was 0.008 µM.
With `CCOC(=O)c1ccnc(N2CC(C(=O)Nc3ccc(C)nc3OC(F)F)(c3ccccc3C(C)C)C2)n1` [Ex 18-14, ethyl 2-(3-((2-(difluoromethoxy)-6-methylpyridin-3-yl)carbamoyl)-3-(2-isopropylphenyl)azetidin-1-yl)pyrimidine-4-carboxylate] the IC50 was 0.56 µM.
`Cc1ccc(NC(=O)C2(c3ccccc3C(C)C)CCN(C(=O)Cc3cc(O)n[nH]3)CC2)c(OC(F)F)n1` [Ex 12-25, N-(2-(difluoromethoxy)-6-methylpyridin-3-yl)-1-(2-(3-hydroxy-1H-pyrazol-5-yl)acetyl)-4-(2-isopropylphenyl)piperidine-4-carboxamide] was tested, and the IC50 was 0.015 µM.
`Cc1ccc(NC(=O)C2(c3ccccc3C(C)C)CN(c3nccc(C(=O)O)n3)C2)c(OC(F)F)n1` [Ex 18-15, 2-(3-((2-(difluoromethoxy)-6-methylpyridin-3-yl)carbamoyl)-3-(2-isopropylphenyl)azetidin-1-yl)pyrimidine-4-carboxylic acid] was tested, and the IC50 was 0.047 µM.
In the case of `COC(=O)[C@@H]1C[C@@H]1C(=O)N1CC(C(=O)Nc2ccc(C)nc2OC(F)F)(c2ccccc2C(C)C)C1` [Ex 12-96, methyl (1R,2S)-2-(3-((2-(difluoromethoxy)-6-methylpyridin-3-yl)carbamoyl)-3-(2-isopropylphenyl)azetidine-1-carbonyl)cyclopropane-1-carboxylate], the IC50 is reported as 0.034 µM.
`CC(=O)NS(=O)(=O)N1CC(C(=O)Nc2cccnc2OC(F)F)(c2ccccc2C(C)C)C1` [Ex 16-2, 1-(N-acetylsulfamoyl)-N-(2-(difluoromethoxy)pyridin-3-yl)-3-(2-isopropylphenyl)azetidine-3-carboxamide] gave an IC50 of 0.158 µM.
Work on `Cc1ccc(NC(=O)C2(c3ccccc3C(C)C)CN(C(=O)CC3CCN(C)CC3)C2)c(OC(F)F)n1` [Ex 12-31, N-(2-(difluoromethoxy)-6-methylpyridin-3-yl)-3-(2-isopropylphenyl)-1-(2-(1-methylpiperidin-4-yl)acetyl)azetidine-3-carboxamide] yielded an IC50 of 0.337 µM.
`Cc1ccc(NC(=O)C2(c3ccccc3C(C)C)CN(c3cc(C(=O)O)ncn3)C2)c(OC(F)F)n1` [Ex 18-13, 6-(3-((2-(difluoromethoxy)-6-methylpyridin-3-yl)carbamoyl)-3-(2-isopropylphenyl)azetidin-1-yl)pyrimidine-4-carboxylic acid] showed an IC50 of 0.017 µM.
For `Cc1ccc(NC(=O)C2(c3ccccc3C(C)C)CN(C(=O)CN3CC(O)C3)C2)c(OC(F)F)n1` [Ex 12-53, N-(2-(difluoromethoxy)-6-methylpyridin-3-yl)-1-(2-(3-hydroxyazetidin-1-yl)acetyl)-3-(2-isopropylphenyl)azetidine-3-carboxamide], the IC50 was 0.017 µM.
`CCOC(=O)C1(C(=O)N2CC(C(=O)Nc3ccc(C)nc3OC(F)F)(c3ccccc3C(C)C)C2)CNC1` [Ex 12-113, ethyl 3-(3-((2-(difluoromethoxy)-6-methylpyridin-3-yl)carbamoyl)-3-(2-isopropylphenyl)azetidine-1-carbonyl)azetidine-3-carboxylate] gave an IC50 of 0.053 µM.
Molecule `COC(=O)c1cnc(CN2CC(C(=O)Nc3ccc(C)nc3OC(F)F)(c3ccccc3C(C)C)C2)cn1` [Ex 11-54, methyl 5-((3-((2-(difluoromethoxy)-6-methylpyridin-3-yl)carbamoyl)-3-(2-isopropylphenyl)azetidin-1-yl)methyl)pyrazine-2-carboxylate] has an IC50 of 0.095 µM.
Molecule `Cc1ccc(NC(=O)C2(c3ccccc3C(C)C)CN(CC(N)=O)C2)c(OC(F)F)n1` [Ex 11-15, 1-(2-amino-2-oxoethyl)-N-(2-(difluoromethoxy)-6-methylpyridin-3-yl)-3-(2-isopropylphenyl)azetidine-3-carboxamide] has an IC50 of 0.022 µM.
Molecule `Cc1ccc(C2(C(=O)Nc3ccc(C)nc3OC(F)F)CNC2)c(C(C)C)c1` [Ex 35, N-(2-(difluoromethoxy)-6-methylpyridin-3-yl)-3-(2-isopropyl-4-methylphenyl)azetidine-3-carboxamide] has an IC50 of 0.075 µM.
`Cc1ccc(NC(=O)C2(c3ccccc3C(C)C)CN(Cc3ccnc(C(=O)O)c3)C2)c(OC(F)F)n1` [Ex 11-51, 4-((3-((2-(difluoromethoxy)-6-methylpyridin-3-yl)carbamoyl)-3-(2-isopropylphenyl)azetidin-1-yl)methyl)picolinic acid] was tested, and the IC50 was 0.041 µM.
Work on `Cc1ccc(NC(=O)C2(c3ccccc3C(C)C)CN(S(=O)(=O)c3cn[nH]c3C(=O)O)C2)c(OC(F)F)n1` [Ex 13-23, 4-((3-((2-(difluoromethoxy)-6-methylpyridin-3-yl)carbamoyl)-3-(2-isopropylphenyl)azetidin-1-yl)sulfonyl)-1H-pyrazole-5-carboxylic acid] yielded an IC50 of 0.1 µM.
Work on `Cc1ccc(NC(=O)C2(c3ccccc3C(C)C)CN(C(=O)CS(N)(=O)=O)C2)c(OC(F)F)n1` [Ex 12-4, N-(2-(difluoromethoxy)-6-methylpyridin-3-yl)-3-(2-isopropylphenyl)-1-(2-sulfamoylacetyl)azetidine-3-carboxamide] yielded an IC50 of 0.02 µM.
For `CCOC(=O)c1cn[nH]c1S(=O)(=O)N1CC(C(=O)Nc2ccc(C)nc2OC(F)F)(c2ccccc2C(C)C)C1` [Ex 13-24, ethyl 5-((3-((2-(difluoromethoxy)-6-methylpyridin-3-yl)carbamoyl)-3-(2-isopropylphenyl)azetidin-1-yl)sulfonyl)-1H-pyrazole-4-carboxylate], the IC50 was 0.75 µM.
For `Cc1ccc(NC(=O)C2(c3ccccc3C(C)C)CN(C(=O)[C@H](C)NC(=O)OC(C)(C)C)C2)c(OC(F)F)n1` [Ex 12-32, tert-butyl (S)-(1-(3-((2-(difluoromethoxy)-6-methylpyridin-3-yl)carbamoyl)-3-(2-isopropylphenyl)azetidin-1-yl)-1-oxopropan-2-yl)carbamate], the IC50 was 1.72 µM.
Molecule `Cc1ccc(NC(=O)C2(c3ccccc3C(C)C)CN(C(=O)N[C@@H](C)C(=O)O)C2)c(OC(F)F)n1` [Ex 17-9, (3-((2-(difluoromethoxy)-6-methylpyridin-3-yl)carbamoyl)-3-(2-isopropylphenyl)azetidine-1-carbonyl)-L-alanine] has an IC50 of 0.048 µM.
Molecule `NS(=O)(=O)N1CC(C(=O)Nc2ncc(Cl)cc2OC(F)F)(c2ccccc2C2CCCC2)C1` [Example 81-6, N-(5-chloro-3-(difluoromethoxy)pyridin-2-yl)-3-(2-cyclopentylphenyl)-1-sulfamoylazetidine-3-carboxamide] has an IC50 of 0.022 µM.
For `CC(=O)N(CCC(=O)N1CC(C(=O)Nc2ccc(C)nc2OC(F)F)(c2ccccc2C(C)C)C1)OCc1ccccc1` [Ex 12-131, 1-(3-(N-(benzyloxy)acetamido)propanoyl)-N-(2-(difluoromethoxy)-6-methylpyridin-3-yl)-3-(2-isopropylphenyl)azetidine-3-carboxamide], the IC50 was 0.64 µM.
`COc1ccc(NC(=O)C2(c3ccccc3C(C)C)CN(C(=O)CC(C)(C)C(=O)O)C2)c(OC)n1` [Ex 12-86, 4-(3-((2,6-dimethoxypyridin-3-yl)carbamoyl)-3-(2-isopropylphenyl)azetidin-1-yl)-2,2-dimethyl-4-oxobutanoic acid] showed an IC50 of 0.027 µM.
`COC(=O)Cn1cccc1CN1CC(C(=O)Nc2ccc(C)nc2OC(F)F)(c2ccccc2C(C)C)C1` [Ex 11-41, methyl 2-(2-((3-((2-(difluoromethoxy)-6-methylpyridin-3-yl)carbamoyl)-3-(2-isopropylphenyl)azetidin-1-yl)methyl)-1H-pyrrol-1-yl)acetate] was tested, and the IC50 was 0.067 µM.
`CC(C)c1ccccc1C1(C(=O)Nc2cc(F)cnc2OC(F)F)CN(C(=O)CC(C)(C)C(=O)O)C1` [Ex 12-87, 4-(3-((2-(difluoromethoxy)-5-fluoropyridin-3-yl)carbamoyl)-3-(2-isopropylphenyl)azetidin-1-yl)-2,2-dimethyl-4-oxobutanoic acid] showed an IC50 of 0.041 µM.
Molecule `Cc1ccc(NC(=O)C2(c3ccccc3C(C)C)CN(C(=O)O[C@@H](C)C(=O)O)C2)c(OC(F)F)n1` [Ex 14-4, (S)-2-((3-((2-(difluoromethoxy)-6-methylpyridin-3-yl)carbamoyl)-3-(2-isopropylphenyl)azetidine-1-carbonyl)oxy)propanoic acid] has an IC50 of 0.016 µM.
